Source: patent US10610520B2, “Heterocyclic compound” (Takeda Pharmaceutical Company Limited, priority 2016, dated 2020)

How the values were obtained:
[1] = target: T1, His-hMAGL (recombinant polyhistidine tagged human MAGL protein) (Homo sapiens, UniProt Q99685); assay: Measurement of MAGL inhibitory activity (arachidonic acid production from 2-arachidonylglycerol, RapidFire-mass spectrometry); assay type: biochemical; conditions: MAGL inhibitory rate, test compound 10 μM, 60 min preincubation, 2-arachidonylglycerol substrate
T1 construct: made in house; host or cells: E. coli BL21(DE3)
T1 sequence (Q99685 1-303): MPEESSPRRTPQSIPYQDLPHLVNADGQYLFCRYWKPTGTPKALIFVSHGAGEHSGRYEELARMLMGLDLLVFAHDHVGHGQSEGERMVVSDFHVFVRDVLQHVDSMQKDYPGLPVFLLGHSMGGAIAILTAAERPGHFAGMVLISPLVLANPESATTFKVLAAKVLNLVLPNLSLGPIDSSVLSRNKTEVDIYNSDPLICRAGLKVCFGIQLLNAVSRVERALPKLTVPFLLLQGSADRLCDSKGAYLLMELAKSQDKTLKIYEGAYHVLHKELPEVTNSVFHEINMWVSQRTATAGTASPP
Procedure, shortened: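 Arachidonic acid formed was quantified by online solid-phase extraction and triple-quadrupole MS in negative SRM mode against a d8 internal standard. Reaction: recombinant His-hMAGL (7.5 ng/mL, pH 7.5 Tris buffer with Triton X-100 and BSA) plus 2-AG (5 μL of 150 μM stock) for 10 min at room temperature, quenched with 2% formic acid. Percent inhibition corrected for enzyme-free background.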

[2] = test system: intracerebral 2-AG and arachidonic acid; assay: Measurement of intracerebral 2-AG and arachidonic acid concentrations after oral administration; assay type: in vivo, C57BL/6J mice; conditions: for 2-AG concentration / arachidonic acid concentration: cerebrum, male C57BL/6J mice, 3 mg/kg by gavage; for 2-AG concentration: control 9.9; for arachidonic acid concentration: control 163.5; for migration into brain: oral administration to C57BL/6J mice, 3 mg/kg
Description: As the mouse, 8-week-old male C57BL/6J mice (CLEA Japan, Inc.) were used (6 mice/group). Administration solutions were prepared by suspending the test compounds (compound 1 (compound of Example 279), compound 2 (compound of Example 361) and compound 3 (compound of Example 362)) in 0.5% methylcellulose solution (Wako Pure Chemical Industries, Ltd.). The dose of the test compound was prepared to be 3 mg/kg body weight/10 mL. The test compounds were administered by gavage at 3 mg/kg body weight. The cerebrum was isolated after the administration of the test compound (isolation time after the administration of the test compound is shown in Table 3), and the cerebrum hemisphere was extracted. The obtained cerebrum hemisphere was frozen on dry ice, and the frozen tissue weight was measured.
The cerebral tissue weight was measured, and cerebral tissue was homogenized with 4-fold (v/w) of isopropanol (IPA), and double diluted with IPA. To the diluted sample (200 μL) was added internal standard solution (5 μL) ([5,6,8,9,11,12,14,15-D8]-(5Z,8Z,11Z,14Z)5,8,11,14-eicosatetraenoic acid (AA-d8, 0.5 nmol/mL IPA) and [5,6,8,9,11,12,14,15-D8]-(5Z,8Z,11Z,14Z)-5,8,11,14-eicosatetraenoyl-2-glycerol ester (2-AG-d3, 0.5 nmol/mL IPA)), and the mixture was centrifuged at 15000 rpm for 5 min. The supernatant was injected to liquid chromatography mass spectrometer to perform quantitative analysis.
For liquid chromatography, Shimadzu LC20A system (Shimadzu Corporation) was used. The separation was performed by gradient elution method with mobile phase A (10 mmol/L HCOONH4/HCOOH (100:0.2, v/v)) and mobile phase B (ethanol/IPA (3:2, v/v)) using Shim-pack XR-ODS (2.2 μm, 2.0×30 mm, Shimadzu Corporation) at column temperature of 50° C., at flow rate of 0.5 mL/min. The gradient conditions are as follows: 0-1 min, 1% B; 1-1.2 min, 1-55% B; 1.2-2.7 min, 55-75% B; 2.7-3.5 min, 75-99% B; 3.5-6 min, 99% B; 6-8 min, 1% B.
For mass spectrometer, API5000 (AB SCIEX) was used. The eluate from the liquid chromatography was directly ionized by turbospray ionization method, where (5Z,8Z,11Z,14Z)5,8,11,14-eicosatetraenoic acid (AA) and AA-d8 were measured by negative ionization mode, and (5Z,8Z,11Z,14Z)5,8,11,14-eicosatetraenoyl-2-glycerol ester (2-AG) and 2-AG-d3 were measured by positive ionization mode.
A solution for calibration curve was prepared to the concentration of 2, 5, 10, 20, 50, 100, 200, 500, 1000 nmol/mL of acetonitrile. These solutions (10 μL) was mixed with 200 μL of IPA and 5 μL of internal standard solution, and the mixture was centrifuged at 15000 rpm for 5 min, and the supernatant was injected to liquid chromatography mass spectrometer to perform analysis. The calibration curve was drawn by regression line with a weighting of 1/x^2, and the quantitativity was confirmed by accuracy of 100±20% and R^2>0.99.

[3] = isolation 2 hour after administration
[4] = isolation 1 hour after administration

## O=C1NC2(CO1)CN(C(=O)[C@H]1C[C@@H](OCc3ccc(C(F)(F)F)c(Cl)c3)C1)C2 [Example 359, 2-((cis-3-((3-chloro-4-(trifluoromethyl)benzyl)oxy)cyclobutyl)carbonyl)-7-oxa-2,5-diazaspiro[3.4]octan-6-one]
[1]
  inhibition at 10 µM: 99%

## O=C1NC2(CO1)CN(C(=O)c1sc3c(F)c(OC(F)(F)F)ccc3c1C(F)F)C2 [Example 360, 2-((3-(difluoromethyl)-7-fluoro-6-(trifluoromethoxy)-1-benzothiophen-2-yl)carbonyl)-7-oxa-2,5-diazaspiro[3.4]octan-6-one]
[1]
  inhibition at 10 µM: 100%

## O=C1NC2(CO1)CN(C(=O)c1sc3cc(F)ccc3c1Cl)C2 [Example 361, 2-((3-chloro-6-fluoro-1-benzothiophen-2-yl)carbonyl)-7-oxa-2,5-diazaspiro[3.4]octan-6-one]
[1]
  inhibition at 10 µM: 99%

## O=C1NC2(CO1)CN(C(=O)c1sc3cc(F)cc(F)c3c1Cl)C2 [Example 362, 2-((3-chloro-4,6-difluoro-1-benzothiophen-2-yl)carbonyl)-7-oxa-2,5-diazaspiro[3.4]octan-6-one]
[1]
  inhibition at 10 µM: 100%

## O=C1NC2(CO1)CN(C(=O)c1sc3cc(F)cc(OCC4CC4)c3c1Cl)C2 [Example 363, 2-((3-chloro-4-(cyclopropylmethoxy)-6-fluoro-1-benzothiophen-2-yl)carbonyl)-7-oxa-2,5-diazaspiro[3.4]octan-6-one]
[1]
  inhibition at 10 µM: 99%

## O=C1NC2(CO1)CN(C(=O)c1sc3cc(Cl)ccc3c1Cl)C2 [Example 364, 2-((3,6-dichloro-1-benzothiophen-2-yl)carbonyl)-7-oxa-2,5-diazaspiro[3.4]octan-6-one]
[1]
  inhibition at 10 µM: 100%

## O=C1NC2(CCN(C(=O)c3sc4cc(C(F)(F)F)ccc4c3Cl)C2)CO1 (centres unmarked) [Example 365, 7-((3-chloro-6-(trifluoromethyl)-1-benzothiophen-2-yl)carbonyl)-3-oxa-1,7-diazaspiro[4.4]nonan-2-one]
[1]
  inhibition at 10 µM: 100%

## Cc1c(C(=O)N2CC3(CCC(=O)N3)C2)sc2cc(C(F)(F)F)ccc12 [Example 366, 2-((3-methyl-6-(trifluoromethyl)-1-benzothiophen-2-yl)carbonyl)-2,5-diazaspiro[3.4]octan-6-one]
[1]
  inhibition at 10 µM: 99%

## O=C1NC2(CO1)CN(C(=O)c1sc3c(F)c(OC(F)(F)F)ccc3c1Cl)C2 [compound 1, 2-((3-chloro-7-fluoro-6-(trifluoromethoxy)-1-benzothiophen-2-yl)carbonyl)-7-oxa-2,5-diazaspiro[3.4]octan-6-one]
[2]; [3]
  2-AG concentration: 73.2 nmol/g
  arachidonic acid concentration: 109.4 nmol/g
[2]
  migration into brain: migrated into brain

## O=C1NC2(CO1)CN(C(=O)c1sc3cc(F)ccc3c1Cl)C2 [compound 2, 2-((3-chloro-6-fluoro-1-benzothiophen-2-yl)carbonyl)-7-oxa-2,5-diazaspiro[3.4]octan-6-one]
[2]; [4]
  2-AG concentration: 30.2 nmol/g
  arachidonic acid concentration: 151.8 nmol/g
[2]
  migration into brain: migrated into brain

## O=C1NC2(CO1)CN(C(=O)c1sc3cc(F)cc(F)c3c1Cl)C2 [compound 3, 2-((3-chloro-4,6-difluoro-1-benzothiophen-2-yl)carbonyl)-7-oxa-2,5-diazaspiro[3.4]octan-6-one]
[2]; [4]
  2-AG concentration: 25.7 nmol/g
  arachidonic acid concentration: 156.1 nmol/g
[2]
  migration into brain: migrated into brain
